In patent US20090022739A1, “MODULATING THE KV1.1 VOLTAGE-GATED POTASSIUM CHANNEL IN T-CELLS FOR REGULATING THE […] AND SECRETION OF TUMOR NECROSIS FACTOR ALPHA (tnf-ALPHA) AND TREATING HUMAN DISEASE OR INJURIES MEDIATED BY […] HIGH OR LOW LEVELS OF TNF-ALPHA” (priority 2005, published 2009):
Like-named read-outs stand apart in the source and are kept apart here. No end group written: not given here.

Experiments:
normal human T-cells = type: cell-based; conditions: for effect on DTX-K-induced TNF-α secretion: 100 μM blocker added 5 min before 100 nM DTX-K, FIG. 2K; for fold increase in TNFα secretion: FIG. 1A, DTX-K 100 nM, other blockers at highest concentration used
Protocol: Human T-Cells: Normal human T-cells were purified from peripheral blood of healthy donors as described (Levite et al, 2000; Ganor et al, 2003; Levite t al, 1998), and the resulting cell population, containing ≧90% T-cells, was suspended in RPMI medium supplemented with 10% FCS, 1% L-Glutamine and antibiotics (Biological Industries, Bet Haemek, Israel) and maintained at 2×10^6 cells/ml (37° C./5% CO2).
Determination of TNF-α, IFN-γ, IL-10 and IL-4 by ELISA: Freshly-purified normal resting human T-cells (2×10^6/ml) were incubated in 24-well plates (Costar, Corning, N.Y.) and the various channel blockers were added. […] Cytokine levels were measured in supernatants after 24 hours for TNF-α and IFN-γ and after 72 hours for IL-10 and IL-4, by quantitative sandwich ELISA (R&D, Minneapolis, Minn.), according to the manufacturer's instructions. […]
These 12 blockers were selected on the basis of their reported ability to block most types of K^+, Na^+, Ca^2+ and Cl^− channels expressed in T-cells (Deutsch et al, 1986; Lewis et al, 1995; Lewis et al, 1988; Rader et al, 1996; Freedman et al, 1995; Koo et al, 1997; Lin et al, 1993; Ishida et al, 1993; Jensen et al, 1999; Kotturi et al, 2003; Phipps et al, 1996; Verheugen et al, 1997; Levite et al, 2000; Chandy et al, 1984). The levels of TNFα secreted into the culture media were tested 24 hours later by ELISA. For positive control, the cells were exposed to the potent phorbol ester PMA, know to activate T-cells in a non-specific manner. The results are shown in FIG. 1A and represent fold increase ±SD TNF-α secretion tested in 2-3 independent experiments. Each ion channel blocker was examined in at least two independent experiments, and at several concentrations covering its effective range (see Materials and Methods). The numbers in each figure next to each blocker represent the highest molar concentration used. Statistical analysis: *P=0.0001, 0.0005, 0.0011 and 0.0005 vs. untreated for MgTX, KTX, DTX-K and PMA, respectively (Student's t-test).

ion channels = conditions: manufacturer's data sheets and/or the literature; cited from earlier work
[1] = system: melanoma in-transit metastases; conditions: ILP; cited from earlier work
[2] = system: cloned Kv1.1, Kv1.2 and Kv1.6 channels; conditions: cited from earlier work
Kv1.1 [3] = target: T1, Kv1.1 (Homo sapiens, UniProt Q09470); conditions: Gutman et al, 2003; cited from earlier work
Kv1.1 [4] = target: T1, Kv1.1; conditions: cited from earlier work
Kv1.2 = Kv1.2 (Homo sapiens, UniProt P16389); conditions: cited from earlier work
Kv1.3 = target: T2, Kv1.3 (Homo sapiens, UniProt P22001); conditions: cited from earlier work
T2 construct: host or cells: Xenopus laevis oocytes

[5] = target: Kv1.1 voltage-gated potassium channel of normal human peripheral T-cells (human) (UniProt Q09470); experiment: cell-based or functional assay
Shaker B K^+-channels = Shaker B K^+-channels (Drosophila melanogaster, UniProt P08510); conditions: at 100 nM concentration; cited from earlier work
high-grade STS = conditions: cited from earlier work
[6] = system: host ED1-positive cells in the liver; conditions: administration of TNF-α into the brain; Campbell et al, 2005; cited from earlier work
Kv1.1, Kv1.2 and Kv1.3 = conditions: cited from earlier work
[7] = 24 hours, several effective concentrations, no other stimulus
[8] = multicenter trials in Europe, ILP for STS

T1 sequence (Q09470 whole entry): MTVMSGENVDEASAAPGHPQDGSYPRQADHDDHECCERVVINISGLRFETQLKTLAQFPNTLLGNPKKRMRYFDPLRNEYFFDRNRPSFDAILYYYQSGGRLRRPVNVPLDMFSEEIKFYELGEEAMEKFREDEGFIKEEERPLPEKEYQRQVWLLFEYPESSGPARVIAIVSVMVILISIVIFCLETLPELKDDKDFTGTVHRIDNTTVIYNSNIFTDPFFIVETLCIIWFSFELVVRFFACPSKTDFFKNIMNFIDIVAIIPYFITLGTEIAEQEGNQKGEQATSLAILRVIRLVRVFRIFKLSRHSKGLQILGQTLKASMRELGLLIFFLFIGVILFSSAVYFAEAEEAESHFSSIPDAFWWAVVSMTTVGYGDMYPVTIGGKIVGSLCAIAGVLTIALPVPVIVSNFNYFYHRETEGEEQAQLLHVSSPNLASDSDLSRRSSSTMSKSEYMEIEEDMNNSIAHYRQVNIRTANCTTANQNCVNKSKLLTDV
Sequence of Kv1.1 voltage-gated potassium channel of normal human peripheral T-cells (human) (Q09470 whole entry): as above
T2 sequence (P22001 whole entry): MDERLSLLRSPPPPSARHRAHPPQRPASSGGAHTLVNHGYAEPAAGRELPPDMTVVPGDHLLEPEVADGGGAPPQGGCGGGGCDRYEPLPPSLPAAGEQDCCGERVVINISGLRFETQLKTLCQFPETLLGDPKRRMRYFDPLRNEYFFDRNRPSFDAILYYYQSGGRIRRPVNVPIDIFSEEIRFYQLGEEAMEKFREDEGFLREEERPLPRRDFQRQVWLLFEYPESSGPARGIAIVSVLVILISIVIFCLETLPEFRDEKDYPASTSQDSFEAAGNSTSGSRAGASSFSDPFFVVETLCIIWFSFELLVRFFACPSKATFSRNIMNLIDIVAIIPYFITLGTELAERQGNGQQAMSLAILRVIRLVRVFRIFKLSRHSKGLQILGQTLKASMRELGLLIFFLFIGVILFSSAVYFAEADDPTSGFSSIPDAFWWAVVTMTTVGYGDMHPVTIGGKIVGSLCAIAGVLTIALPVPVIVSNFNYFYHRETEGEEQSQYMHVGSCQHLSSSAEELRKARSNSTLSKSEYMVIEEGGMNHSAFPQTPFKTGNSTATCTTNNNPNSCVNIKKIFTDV
Sequence of Shaker B K^+-channels (P08510 whole entry): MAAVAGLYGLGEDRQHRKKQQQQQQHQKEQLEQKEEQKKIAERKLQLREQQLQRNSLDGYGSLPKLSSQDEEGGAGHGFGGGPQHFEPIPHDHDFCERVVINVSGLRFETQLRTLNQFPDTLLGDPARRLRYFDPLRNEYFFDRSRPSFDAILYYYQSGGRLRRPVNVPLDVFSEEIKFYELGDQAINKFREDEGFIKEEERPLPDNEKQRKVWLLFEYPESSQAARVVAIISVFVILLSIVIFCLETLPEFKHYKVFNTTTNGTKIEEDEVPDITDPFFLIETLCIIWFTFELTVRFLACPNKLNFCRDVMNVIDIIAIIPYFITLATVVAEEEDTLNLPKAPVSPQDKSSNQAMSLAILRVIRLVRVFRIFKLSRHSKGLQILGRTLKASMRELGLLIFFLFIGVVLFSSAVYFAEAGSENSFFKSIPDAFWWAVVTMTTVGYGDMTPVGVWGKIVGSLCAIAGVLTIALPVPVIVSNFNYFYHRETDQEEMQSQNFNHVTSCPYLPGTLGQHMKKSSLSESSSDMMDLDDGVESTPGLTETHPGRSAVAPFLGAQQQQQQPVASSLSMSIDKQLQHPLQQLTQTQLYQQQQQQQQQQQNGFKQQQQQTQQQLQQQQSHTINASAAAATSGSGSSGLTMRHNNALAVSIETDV

Nc1ccncc1 [4-AP, 4-Aminopyridine]
TNF-α up-regulation (normal human T-cells; [7]): no significant TNF-α up-regulation

COC(=O)C1=C(C)NC(C)=C([N+](=O)[O-])C1c1ccccc1C(F)(F)F (stereo not drawn) [+Bay K, R-(+)-Bay K8644]
effect on DTX-K-induced TNF-α secretion (normal human T-cells; 24 hours): prevented completely
TNF-α up-regulation (normal human T-cells; [7]): no significant TNF-α up-regulation

Clc1ccccc1C(c1ccccc1)(c1ccccc1)n1ccnc1 [CLT, Clotrimazole]
TNF-α up-regulation (normal human T-cells): no significant TNF-α up-regulation

N#Cc1cc2[nH]c(=O)c(=O)[nH]c2cc1[N+](=O)[O-] [CNQX]
TNF-α up-regulation (normal human T-cells; [7]): no significant TNF-α up-regulation

O=C(O)c1cc([N+](=O)[O-])ccc1NCCCc1ccccc1 [NPPB]
effect on DTX-K-induced TNF-α secretion (normal human T-cells; 24 hours): no such interrupting effect
TNF-α up-regulation (normal human T-cells; [7]): no significant TNF-α up-regulation
effective concentrations (ion channels): 100 to 200 µM

CCCCCCCCCCCCCC(=O)O[C@@H]1[C@@H](C)[C@@]2(O)[C@@H](C=C(CO)C[C@]3(O)C(=O)C(C)=C[C@@H]23)[C@@H]2C(C)(C)[C@]12OC(C)=O [PMA]
fold increase in TNFα secretion (normal human T-cells; 24 hours, no other stimulus): 41.3 fold increase

C=C[C@H]1C[N@@]2CC[C@H]1C[C@H]2[C@H](O)c1ccnc2ccc(OC)cc12 [Quinine]
TNF-α up-regulation (normal human T-cells; [7]): no significant TNF-α up-regulation
effective concentrations (ion channels): 1 to 10 µM

CC[N+](CC)(CC)CC [TEA, Tetraethylammonium]
TNF-α up-regulation (normal human T-cells): no significant TNF-α up-regulation

NC1=N[C@H](O)[C@H]2[C@H]3O[C@]4(O)O[C@@H]([C@@H](O)[C@@]2(N1)[C@@H]4O)[C@]3(O)CO [TTX, Tetrodotoxin]
TNF-α up-regulation (normal human T-cells): no significant TNF-α up-regulation

N[C@@H](Cc1ccc(N(CCCl)CCCl)cc1)C(=O)O [melphalan]
complete response (CR) rate [1]: ~50%
overall response rate [1]: 80%

Alpha-dendrotoxin
concentration range blocking cloned Kv1.1, Kv1.2 and Kv1.6 channels [2]: low nanomolar range

Kaliotoxin (GVEINVKCSGSPQCLKPCKDAGMRFGKCMNRKCHCTPK) [KTX]
fold increase in TNFα secretion (normal human T-cells; 24 hours, no other stimulus): 15.1 fold increase
Ki (Kv1.1 [3]): 0.02 µM
Kd (Kv1.1 [4]; bath application to Xenopus laevis oocytes, Mourre et al, 1999, read-out: K(d), recombinant Kv1.1): 0.0015 µM
Kd (Kv1.2; bath application to Xenopus laevis oocytes, Mourre et al, 1999, read-out: K(d), recombinant Kv1.2): 0.025 µM
Kd (Kv1.3; bath application to Xenopus laevis oocytes, Mourre et al, 1999, read-out: K(d), recombinant Kv1.3): 0.0001 µM
effective concentrations (ion channels): 0.001 to 0.1 µM

Kaliotoxin (from UniProt P24662 1-38) (peptide)
fold increase in TNFα secretion by human T-cells (ELISA, 24 h) [5]: 15.1 fold

Pi4: 38-amino acid long peptide from the venom of the scorpion Pandinus imperator (IEAIRCGGSRDCYRPCQKRTGCPNAKCINKTCKCYGCS; UniProt P58498 1-38, looked up)
block of Shaker B K^+-channels (Shaker B K^+-channels): blocks completely and reversibly

TNF-α
major response rates, median (high-grade STS; largest single-center studies in STS, range 58%-91%): 76%
median limb salvage rate (high-grade STS; largest single-center studies in STS, range 58%-97%): 84%
median limb salvage rate (high-grade STS; [8]): 82%
overall response rate (high-grade STS; [8]): 76%
complete response (CR) rate [1]: 70%-90%
overall response rate [1]: 95%-100%
increase in the number of host ED1-positive cells accumulated in the liver [6]: up to two fold increase

maurotoxins: natural and synthetic maurotoxins, four disulfide bridges scorpion toxin (VSCTGSKDCYAPCRKQTGCPNAKCINKSCKCYGC; disulfide (positions not given here); also: four disulfide bridges, pairing not given here; UniProt P80719 1-34, looked up)
IC50 (Kv1.1 [4]; Xenopus oocytes, Rochat et al, 1998, read-out: half-effects (IC50), Kv1.1): ~0.04 µM
IC50 (Kv1.2; Xenopus oocytes, Rochat et al, 1998, read-out: half-effects (IC50), Kv1.2): ~0.0008 µM
IC50 (Kv1.3; Xenopus oocytes, Rochat et al, 1998, read-out: half-effects (IC50), Kv1.3): ~0.15 µM

rCharybdotoxin [CTX]
TNF-α up-regulation (normal human T-cells; [7]): no significant TNF-α up-regulation

rHongotoxin-1: Centruroides limbatus toxin, blocks Kv1.1, Kv1.2 and Kv1.3 (TVIDVKCTSPKQCLPPCKAQFGIRAGAKCMNGKCKCYPH; ends and bridges not checked; cysteine pairing not given here; UniProt P59847 1-39, looked up)
blocking concentration, Kv1.1, Kv1.2 and Kv1.3 (Kv1.1, Kv1.2 and Kv1.3): 0.1 to 0.2 pM

rMargatoxin (TIINVKCTSPKQCLPPCKAQFGQSAGAKCMNGKCKCYPH) [MgTX]
fold increase in TNFα secretion (normal human T-cells; 24 hours, no other stimulus): 6.5 fold increase

rMargatoxin (from UniProt P40755 1-39) (peptide)
fold increase in TNFα secretion by human T-cells (ELISA, 24 h) [5]: 6.5 fold
